# Results as given in patent US12077503B2, “Substituted cyclic amides and their use as herbicides” (FMC CORPORATION, priority 2015, dated 2024).
# How the values were obtained:
# Assay type in all cases: in vivo
# [1] = tested on: barnyardgrass (Echinochloa crus-galli); experiment: Test G Pre-Emergence Protocol; details: Echinochloa crus-galli, pre-emergence, 312 h, evaluated after 13 days
# Method in brief: (§1)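 Herbicidal effect was rated 13 days post-application on a scale where 100 equals total damage. Spraying took place the day after sowing, using 15.625, 62.5 or 250 g/ha of compound in a 50:50 acetone/water solution with 0.5% Tween 20.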
# corn (Zea mays) [2] = experiment: Test G Pre-Emergence Protocol; details: Zea mays, pre-emergence, 312 h, evaluated after 13 days
# Method in brief: as §1
# [3] = tested on: giant foxtail (Setaria faberi); experiment: Test G Pre-Emergence Protocol; details: Setaria faberi, pre-emergence, 312 h, evaluated after 13 days
# Method in brief: as §1
# [4] = tested on: ivy-leaved morning glory (Ipomoea hederacea); experiment: Test G Pre-Emergence Protocol; details: Ipomoea, pre-emergence, 312 h, evaluated after 13 days
# Method in brief: as §1
# [5] = tested on: redroot pigweed (Amaranthus retroflexus); experiment: Test G Pre-Emergence Protocol; details: Amaranthus retroflexus, pre-emergence, 312 h, evaluated after 13 days
# Method in brief: as §1
# [6] = tested on: velvetleaf (Abutilon theophrasti); experiment: Test G Pre-Emergence Protocol; details: Abutilon theophrasti, pre-emergence, 312 h, evaluated after 13 days
# Method in brief: as §1
# [7] = tested on: barnyardgrass (Echinochloa crus-galli); experiment: Test G Post-Emergence Protocol; details: Echinochloa crus-galli, post-emergence, 312 h
# Method in brief: (§2)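 A glasshouse post-emergence test: 8-day-old plants sprayed at 15.625, 62.5 or 250 g/ha, then grown at 24/16 °C day/night with 14 h light and 65% humidity. Damage rated 13 days later, 0–100.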
# corn (Zea mays) [8] = experiment: Test G Post-Emergence Protocol; details: Zea mays, post-emergence, 312 h
# Method in brief: as §2
# [9] = tested on: giant foxtail (Setaria faberi); experiment: Test G Post-Emergence Protocol; details: Setaria faberi, post-emergence, 312 h
# Method in brief: as §2
# [10] = tested on: ivy-leaved morning glory (Ipomoea hederacea); experiment: Test G Post-Emergence Protocol; details: Ipomoea, post-emergence, 312 h
# Method in brief: as §2
# [11] = tested on: redroot pigweed (Amaranthus retroflexus); experiment: Test G Post-Emergence Protocol; details: Amaranthus retroflexus, post-emergence, 312 h
# Method in brief: as §2
# [12] = tested on: velvetleaf (Abutilon theophrasti); experiment: Test G Post-Emergence Protocol; details: Abutilon theophrasti, post-emergence, 312 h
# Method in brief: as §2
compound,measurement,setting,value
CCOC(=O)c1cccc([C@H]2CN(C)C(=O)[C@@H]2C(=O)Nc2ccccc2F)c1 (racemic) [Compound 1438],pest or weed control at 15.625 g/ha,"[1]; 15.625 g ai/ha, read-out: Barnyard grass damage rating (100=total damage to plant; 0=no damage to plant)",0%
same,pest or weed control at 62.5 g/ha,"[1]; 62.5 g ai/ha, 100=total damage to plant, 0=no damage to plant, read-out: plant damage rating, Barnyardgrass",0%
same,pest or weed control at 250 g/ha,"[1]; 250 g ai/ha, read-out: Barnyardgrass damage rating (100=total damage to plant; 0=no damage to plant)",0%
same,plant injury at 15.625 g/ha,"corn (Zea mays) [2]; 15.625 g ai/ha, read-out: Corn damage rating (100=total damage to plant; 0=no damage to plant)",0%
same,plant injury at 62.5 g/ha,"corn (Zea mays) [2]; 62.5 g ai/ha, 100=total damage to plant, 0=no damage to plant, read-out: plant damage rating, Corn",0%
same,plant injury at 250 g/ha,"corn (Zea mays) [2]; 250 g ai/ha, read-out: Corn damage rating (100=total damage to plant; 0=no damage to plant)",0%
same,pest or weed control at 15.625 g/ha,"[3]; 15.625 g ai/ha, read-out: Foxtail, Giant damage rating (100=total damage to plant; 0=no damage to plant)",0%
same,pest or weed control at 62.5 g/ha,"[3]; 62.5 g ai/ha, 100=total damage to plant, 0=no damage to plant, read-out: plant damage rating, Foxtail, Giant",0%
same,pest or weed control at 250 g/ha,"[3]; 250 g ai/ha, read-out: Foxtail, Giant damage rating (100=total damage to plant; 0=no damage to plant)",20%
same,pest or weed control at 15.625 g/ha,"[4]; 15.625 g ai/ha, read-out: Morning-glory, Ivy-leaved damage rating (100=total damage to plant; 0=no damage to plant)",0%
same,pest or weed control at 62.5 g/ha,"[4]; 62.5 g ai/ha, 100=total damage to plant, 0=no damage to plant, read-out: plant damage rating, Morningglory, Ivy-leaved",0%
same,pest or weed control at 250 g/ha,"[4]; 250 g ai/ha, read-out: Morningglory, Ivy-leaved damage rating (100=total damage to plant; 0=no damage to plant)",0%
same,pest or weed control at 15.625 g/ha,"[5]; 15.625 g ai/ha, read-out: Pigweed, Redroot damage rating (100=total damage to plant; 0=no damage to plant)",0%
same,pest or weed control at 62.5 g/ha,"[5]; 62.5 g ai/ha, 100=total damage to plant, 0=no damage to plant, read-out: plant damage rating, Pigweed, Redroot",0%
same,pest or weed control at 250 g/ha,"[5]; 250 g ai/ha, read-out: Pigweed, Redroot damage rating (100=total damage to plant; 0=no damage to plant)",0%
same,pest or weed control at 15.625 g/ha,"[6]; 15.625 g ai/ha, read-out: Velvetleaf damage rating (100=total damage to plant; 0=no damage to plant)",0%
same,pest or weed control at 62.5 g/ha,"[6]; 62.5 g ai/ha, 100=total damage to plant, 0=no damage to plant, read-out: plant damage rating, Velvetleaf",0%
same,pest or weed control at 250 g/ha,"[6]; 250 g ai/ha, read-out: Velvetleaf damage rating (100=total damage to plant; 0=no damage to plant)",0%
same,pest or weed control at 15.625 g/ha,"[7]; 15.625 g ai/ha, evaluated after 13 days (100=total damage to plant; 0=no damage to plant), read-out: Barnyardgrass damage rating",0%
same,pest or weed control at 62.5 g/ha,"[7]; 62.5 g ai/ha, evaluated after 13 days, read-out: Barnyardgrass damage rating (100=total damage to plant; 0=no damage to plant)",0%
same,pest or weed control at 250 g/ha,"[7]; 250 g ai/ha, evaluated after 13 days, read-out: damage to plant, Barnyardgrass (100=total damage to plant; 0=no damage to plant)",0%
same,plant injury at 15.625 g/ha,"corn (Zea mays) [8]; 15.625 g ai/ha, evaluated after 13 days (100=total damage to plant; 0=no damage to plant), read-out: Corn damage rating",0%
same,plant injury at 62.5 g/ha,"corn (Zea mays) [8]; 62.5 g ai/ha, evaluated after 13 days, read-out: Corn damage rating (100=total damage to plant; 0=no damage to plant)",0%
same,plant injury at 250 g/ha,"corn (Zea mays) [8]; 250 g ai/ha, evaluated after 13 days, read-out: damage to plant, Corn (100=total damage to plant; 0=no damage to plant)",0%
same,pest or weed control at 15.625 g/ha,"[9]; 15.625 g ai/ha, evaluated after 13 days (100=total damage to plant; 0=no damage to plant), read-out: Foxtail, Giant damage rating",0%
same,pest or weed control at 62.5 g/ha,"[9]; 62.5 g ai/ha, evaluated after 13 days, read-out: Foxtail, Giant damage rating (100=total damage to plant; 0=no damage to plant)",0%
same,pest or weed control at 250 g/ha,"[9]; 250 g ai/ha, evaluated after 13 days, read-out: damage to plant, Foxtail, Giant (100=total damage to plant; 0=no damage to plant)",0%
same,pest or weed control at 15.625 g/ha,"[10]; 15.625 g ai/ha, evaluated after 13 days (100=total damage to plant; 0=no damage to plant), read-out: Morningglory, Ivy-leaved damage rating",0%
same,pest or weed control at 62.5 g/ha,"[10]; 62.5 g ai/ha, evaluated after 13 days, read-out: Morningglory, Ivy-leaved damage rating (100=total damage to plant; 0=no damage to plant)",0%
same,pest or weed control at 250 g/ha,"[10]; 250 g ai/ha, evaluated after 13 days, read-out: damage to plant, Morningglory, Ivy-leaved (100=total damage to plant; 0=no damage to plant)",0%
same,pest or weed control at 15.625 g/ha,"[11]; 15.625 g ai/ha, evaluated after 13 days (100=total damage to plant; 0=no damage to plant), read-out: Pigweed, Redroot damage rating",0%
same,pest or weed control at 62.5 g/ha,"[11]; 62.5 g ai/ha, evaluated after 13 days, read-out: Pigweed, Redroot damage rating (100=total damage to plant; 0=no damage to plant)",0%
same,pest or weed control at 250 g/ha,"[11]; 250 g ai/ha, evaluated after 13 days, read-out: damage to plant, Pigweed, Redroot (100=total damage to plant; 0=no damage to plant)",10%
same,pest or weed control at 15.625 g/ha,"[12]; 15.625 g ai/ha, evaluated after 13 days (100=total damage to plant; 0=no damage to plant), read-out: Velvetleaf damage rating",0%
same,pest or weed control at 62.5 g/ha,"[12]; 62.5 g ai/ha, evaluated after 13 days, read-out: Velvetleaf damage rating (100=total damage to plant; 0=no damage to plant)",0%
same,pest or weed control at 250 g/ha,"[12]; 250 g ai/ha, evaluated after 13 days, read-out: damage to plant, Velvetleaf (100=total damage to plant; 0=no damage to plant)",0%
